Results as given in ChEMBL document CHEMBL4800722, “Data for DCP probe BI 605906” (2021).

Columns and labels:
[1] = biological target: Serotonin 3 (5-HT3) receptor (Homo sapiens) (UniProt P46098+A5X5Y0+O95264+Q70Z44+Q8WXA8); test: 5HT3/HU Eurofins SafetyScreen44 (BI); assay type: protein-complex assay; details: Compound concentration 10.0 uM
[2] = biological target: Polyunsaturated fatty acid 5-lipoxygenase (Homo sapiens) (UniProt P09917); test: 5LO Eurofins SafetyScreen44 (BI); details: Compound concentration 10.0 uM
[3] = biological target: Voltage-dependent L-type calcium channel subunit alpha-1C (CA+/PAASITE) (Rattus norvegicus, UniProt P22002); test: CA+/PAASITE Eurofins SafetyScreen44 (BI); details: read-out: % Ctrl
[4] = biological target: Atypical kinase COQ8A, mitochondrial (Homo sapiens) (UniProt Q8NI60); test: ADCK3 Invitrogen Lab (UK) kinase screen (BI); details: Compound concentration 1.0 uM
[5] = biological target: Cyclin-dependent kinase 14 (Homo sapiens) (UniProt O94921); test: CDK14 (PFTK1)/CYC Invitrogen Lab (UK) kinase screen (BI); details: Compound concentration 1.0 uM
[6] = biological target: CDK3/Cyclin E (Homo sapiens) (UniProt P24864+Q00526); test: CDK3/CYCLIN E1 Invitrogen Lab (UK) kinase screen (BI); assay type: protein-complex assay; details: Compound concentration 1.0 uM
[7] = biological target: Serine/threonine-protein kinase/endoribonuclease IRE2 (Homo sapiens) (UniProt Q76MJ5); test: ERN2 Invitrogen Lab (UK) kinase screen (BI); details: Compound concentration 1.0 uM
[8] = biological target: Myosin light chain kinase family member 4 (Homo sapiens) (UniProt Q86YV6); test: MYLK4 Invitrogen Lab (UK) kinase screen (BI); details: Compound concentration 1.0 uM
[9] = biological target: Ephrin type-A receptor 8 (Homo sapiens) (UniProt P29322); test: EPHA8 Invitrogen Lab (UK) kinase screen (BI); details: Compound concentration 1.0 uM
[10] = biological target: Tyrosine-protein kinase Fgr (Homo sapiens) (UniProt P09769); test: FGR Invitrogen Lab (UK) kinase screen (BI); details: Compound concentration 1.0 uM
[11] = biological target: Leucine-rich repeat serine/threonine-protein kinase 2 (Homo sapiens) (UniProt Q5S007); test: LRRK2 Invitrogen Lab (UK) kinase screen (BI); details: Compound concentration 1.0 uM
[12] = biological target: Phosphatidylinositol 4-kinase alpha (Homo sapiens) (UniProt P42356); test: PI4KA Invitrogen Lab (UK) kinase screen (BI); details: Compound concentration 1.0 uM
[13] = biological target: Cyclin-dependent kinase 2/cyclin A (Homo sapiens) (UniProt P24941+P20248+P78396); test: CDK2/CYCLINA DUNDEE kinase screen (BI); assay type: protein-complex assay; details: Compound concentration 10.0 uM
[14] = biological target: Serine/threonine-protein kinase Chk2 (Homo sapiens) (UniProt O96017); test: CHK2 DUNDEE kinase screen (BI); details: Compound concentration 10.0 uM
[15] = biological target: T1, D(4) dopamine receptor (Homo sapiens) (UniProt P21917); details: Compound concentration 10.0 uM
T1 sequence (whole entry): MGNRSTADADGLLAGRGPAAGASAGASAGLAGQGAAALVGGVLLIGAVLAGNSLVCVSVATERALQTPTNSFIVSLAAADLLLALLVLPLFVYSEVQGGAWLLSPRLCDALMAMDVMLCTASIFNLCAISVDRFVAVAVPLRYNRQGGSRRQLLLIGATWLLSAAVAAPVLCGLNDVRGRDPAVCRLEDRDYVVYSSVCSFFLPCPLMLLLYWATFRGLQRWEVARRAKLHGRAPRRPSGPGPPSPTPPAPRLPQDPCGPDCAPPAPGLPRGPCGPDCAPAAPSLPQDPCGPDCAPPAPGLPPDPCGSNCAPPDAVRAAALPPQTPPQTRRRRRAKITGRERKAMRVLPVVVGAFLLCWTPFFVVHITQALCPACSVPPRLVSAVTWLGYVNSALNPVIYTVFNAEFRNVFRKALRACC

[16] = biological target: Histamine H1 receptor (Homo sapiens) (UniProt P35367); details: Compound concentration 10.0 uM
[17] = biological target: Muscarinic acetylcholine receptor M3 (Homo sapiens) (UniProt P20309); details: Compound concentration 10.0 uM
Rattus norvegicus = species on record: Rattus norvegicus; details: Compound concentration 10.0 uM
[18] = biological target: B1 bradykinin receptor (Homo sapiens) (UniProt P46663)
[19] = biological target: Cannabinoid receptor 2 (Homo sapiens) (UniProt P34972); details: Compound concentration 10.0 uM
[20] = biological target: Endothelin-converting enzyme 1 (Homo sapiens) (UniProt P42892); details: Compound concentration 10.0 uM
[21] = biological target: Mitogen-activated protein kinase 7 (Homo sapiens) (UniProt Q13164); details: Compound concentration 1.0 uM
[22] = biological target: Dual specificity testis-specific protein kinase 2 (Homo sapiens) (UniProt Q96S53); details: Compound concentration 1.0 uM
[23] = biological target: G protein-coupled receptor kinase 3 (Homo sapiens) (UniProt P35626); details: Compound concentration 1.0 uM
[24] = biological target: Myotonin-protein kinase (Homo sapiens) (UniProt Q09013); details: Compound concentration 1.0 uM
[25] = biological target: Ephrin type-B receptor 4 (Homo sapiens) (UniProt P54760); details: Compound concentration 1.0 uM
[26] = biological target: Interleukin-1 receptor-associated kinase 1 (Homo sapiens) (UniProt P51617); details: Compound concentration 1.0 uM
[27] = biological target: Leukocyte tyrosine kinase receptor (Homo sapiens) (UniProt P29376); details: Compound concentration 1.0 uM
[28] = biological target: Mitogen-activated protein kinase 1 (Homo sapiens) (UniProt P28482)
[29] = biological target: Serine/threonine-protein kinase MARK1 (Homo sapiens) (UniProt Q9P0L2); details: Compound concentration 1.0 uM
[30] = biological target: Serine/threonine-protein kinase PAK 1 (Homo sapiens) (UniProt Q13153); details: Compound concentration 1.0 uM
[31] = biological target: Protein kinase C eta type (Homo sapiens) (UniProt P24723); details: Compound concentration 1.0 uM
[32] = biological target: Serine/threonine-protein kinase D3 (Homo sapiens) (UniProt O94806); details: Compound concentration 1.0 uM
[33] = biological target: Ribosomal protein S6 kinase alpha-4 (Homo sapiens) (UniProt O75676); details: Compound concentration 1.0 uM
[34] = biological target: Testis-specific serine/threonine-protein kinase 2 (Homo sapiens) (UniProt Q96PF2); details: Compound concentration 1.0 uM
[35] = biological target: Tyrosine-protein kinase SYK (Homo sapiens) (UniProt P43405)
[36] = biological target: Serine/threonine-protein kinase TAO3 (Homo sapiens) (UniProt Q9H2K8); details: Compound concentration 1.0 uM
[37] = biological target: TGF-beta receptor type-1 (Homo sapiens) (UniProt P36897); details: Compound concentration 1.0 uM

Voltage-dependent L-type calcium channel subunit alpha-1C (CA+/PAASITE), sequence (P22002 whole entry): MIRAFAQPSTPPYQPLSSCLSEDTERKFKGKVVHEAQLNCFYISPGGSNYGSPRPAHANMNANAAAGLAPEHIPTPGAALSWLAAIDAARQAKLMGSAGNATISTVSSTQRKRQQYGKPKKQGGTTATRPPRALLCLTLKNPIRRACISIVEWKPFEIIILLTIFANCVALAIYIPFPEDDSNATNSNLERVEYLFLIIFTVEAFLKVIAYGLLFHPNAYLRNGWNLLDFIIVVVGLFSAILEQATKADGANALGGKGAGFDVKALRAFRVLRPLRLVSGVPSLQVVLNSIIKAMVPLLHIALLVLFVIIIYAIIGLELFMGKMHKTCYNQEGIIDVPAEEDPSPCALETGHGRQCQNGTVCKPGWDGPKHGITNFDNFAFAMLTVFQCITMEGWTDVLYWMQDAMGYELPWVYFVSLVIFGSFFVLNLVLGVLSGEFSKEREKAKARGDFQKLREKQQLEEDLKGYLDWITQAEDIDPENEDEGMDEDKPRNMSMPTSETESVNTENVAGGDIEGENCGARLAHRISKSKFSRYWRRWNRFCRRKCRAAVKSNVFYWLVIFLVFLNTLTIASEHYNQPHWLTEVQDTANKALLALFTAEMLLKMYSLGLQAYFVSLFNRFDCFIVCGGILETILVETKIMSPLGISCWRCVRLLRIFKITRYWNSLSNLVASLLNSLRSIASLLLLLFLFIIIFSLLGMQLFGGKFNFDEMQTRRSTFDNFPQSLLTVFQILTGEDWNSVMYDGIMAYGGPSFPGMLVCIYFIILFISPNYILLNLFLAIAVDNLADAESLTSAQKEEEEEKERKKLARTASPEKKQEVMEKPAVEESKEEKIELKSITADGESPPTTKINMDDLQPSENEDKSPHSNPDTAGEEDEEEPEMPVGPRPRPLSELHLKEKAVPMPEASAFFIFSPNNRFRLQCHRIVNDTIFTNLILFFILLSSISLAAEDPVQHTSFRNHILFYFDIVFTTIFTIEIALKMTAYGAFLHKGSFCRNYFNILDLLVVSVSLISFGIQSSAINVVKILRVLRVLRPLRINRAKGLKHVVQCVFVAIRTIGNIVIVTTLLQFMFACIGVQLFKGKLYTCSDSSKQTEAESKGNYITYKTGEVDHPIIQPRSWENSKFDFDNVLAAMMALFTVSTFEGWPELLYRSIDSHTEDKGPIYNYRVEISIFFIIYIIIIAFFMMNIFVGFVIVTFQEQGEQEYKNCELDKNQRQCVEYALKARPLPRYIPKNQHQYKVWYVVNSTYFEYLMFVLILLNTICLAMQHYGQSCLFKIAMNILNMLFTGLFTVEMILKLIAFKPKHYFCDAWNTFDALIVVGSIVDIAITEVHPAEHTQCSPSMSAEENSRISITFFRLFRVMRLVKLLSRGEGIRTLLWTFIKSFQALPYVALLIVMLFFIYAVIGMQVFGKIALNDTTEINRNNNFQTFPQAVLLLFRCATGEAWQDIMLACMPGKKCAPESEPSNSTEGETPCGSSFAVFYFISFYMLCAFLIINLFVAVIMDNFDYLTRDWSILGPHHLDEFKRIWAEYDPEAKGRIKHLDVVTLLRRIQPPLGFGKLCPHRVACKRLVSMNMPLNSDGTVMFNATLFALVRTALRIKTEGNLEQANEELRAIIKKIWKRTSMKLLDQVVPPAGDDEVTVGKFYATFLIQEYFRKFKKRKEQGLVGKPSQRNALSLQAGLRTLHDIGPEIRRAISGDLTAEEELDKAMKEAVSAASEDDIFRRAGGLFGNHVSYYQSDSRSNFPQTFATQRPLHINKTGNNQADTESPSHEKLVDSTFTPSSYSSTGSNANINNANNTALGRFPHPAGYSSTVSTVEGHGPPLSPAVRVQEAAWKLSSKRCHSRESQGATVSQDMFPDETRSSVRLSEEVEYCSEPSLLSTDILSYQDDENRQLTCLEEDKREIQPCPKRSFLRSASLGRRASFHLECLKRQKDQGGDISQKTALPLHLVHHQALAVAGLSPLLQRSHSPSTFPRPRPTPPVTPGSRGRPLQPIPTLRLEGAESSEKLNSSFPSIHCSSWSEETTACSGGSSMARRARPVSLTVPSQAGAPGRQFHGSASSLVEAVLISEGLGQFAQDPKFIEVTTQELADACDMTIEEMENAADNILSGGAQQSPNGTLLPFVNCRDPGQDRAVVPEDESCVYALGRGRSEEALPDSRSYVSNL
B1 bradykinin receptor (Homo sapiens), sequence (P46663 whole entry): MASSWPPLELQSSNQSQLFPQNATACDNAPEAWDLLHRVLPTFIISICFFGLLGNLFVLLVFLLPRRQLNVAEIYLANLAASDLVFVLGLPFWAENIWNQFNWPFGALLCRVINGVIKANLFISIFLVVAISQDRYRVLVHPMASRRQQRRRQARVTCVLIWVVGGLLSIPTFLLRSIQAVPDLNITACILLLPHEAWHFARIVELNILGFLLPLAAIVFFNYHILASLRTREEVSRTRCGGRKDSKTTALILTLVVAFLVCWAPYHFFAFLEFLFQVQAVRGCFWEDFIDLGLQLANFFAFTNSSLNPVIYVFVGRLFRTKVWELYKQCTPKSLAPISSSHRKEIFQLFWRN
Mitogen-activated protein kinase 1 (Homo sapiens), sequence (P28482 whole entry): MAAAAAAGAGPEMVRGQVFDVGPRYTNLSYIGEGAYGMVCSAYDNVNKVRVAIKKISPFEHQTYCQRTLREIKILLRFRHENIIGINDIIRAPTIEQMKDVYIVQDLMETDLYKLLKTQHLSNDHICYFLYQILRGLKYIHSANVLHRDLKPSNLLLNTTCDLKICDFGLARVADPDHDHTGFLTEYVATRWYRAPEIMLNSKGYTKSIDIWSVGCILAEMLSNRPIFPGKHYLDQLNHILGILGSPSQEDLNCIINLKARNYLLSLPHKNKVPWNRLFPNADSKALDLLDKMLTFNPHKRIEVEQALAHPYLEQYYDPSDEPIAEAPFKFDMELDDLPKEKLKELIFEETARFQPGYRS
Serine/threonine-protein kinase/endoribonuclease IRE2 (Homo sapiens), sequence (Q76MJ5 35-926 limits assumed): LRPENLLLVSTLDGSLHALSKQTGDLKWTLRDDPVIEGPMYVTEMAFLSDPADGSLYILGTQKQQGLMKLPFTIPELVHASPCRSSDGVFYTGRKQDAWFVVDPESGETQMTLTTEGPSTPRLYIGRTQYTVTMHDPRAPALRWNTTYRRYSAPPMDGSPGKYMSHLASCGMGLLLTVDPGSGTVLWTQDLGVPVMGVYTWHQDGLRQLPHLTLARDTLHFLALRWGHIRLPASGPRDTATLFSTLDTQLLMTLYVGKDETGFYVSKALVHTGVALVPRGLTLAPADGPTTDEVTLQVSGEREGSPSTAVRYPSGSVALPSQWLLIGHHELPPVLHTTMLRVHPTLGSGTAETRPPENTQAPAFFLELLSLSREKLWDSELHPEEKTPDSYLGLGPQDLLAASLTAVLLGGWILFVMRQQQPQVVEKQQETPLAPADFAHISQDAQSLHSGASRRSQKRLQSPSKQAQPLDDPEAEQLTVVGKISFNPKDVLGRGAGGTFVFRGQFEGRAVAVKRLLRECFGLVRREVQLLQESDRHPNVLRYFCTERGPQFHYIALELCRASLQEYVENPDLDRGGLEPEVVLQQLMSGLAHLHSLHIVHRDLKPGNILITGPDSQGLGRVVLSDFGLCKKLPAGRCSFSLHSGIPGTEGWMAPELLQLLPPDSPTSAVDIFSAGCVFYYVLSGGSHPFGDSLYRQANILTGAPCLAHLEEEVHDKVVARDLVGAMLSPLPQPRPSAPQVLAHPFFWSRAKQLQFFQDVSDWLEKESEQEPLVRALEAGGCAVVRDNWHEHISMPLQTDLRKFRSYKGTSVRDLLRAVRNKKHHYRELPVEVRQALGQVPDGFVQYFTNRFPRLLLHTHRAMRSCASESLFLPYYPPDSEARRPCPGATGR
Myotonin-protein kinase (Homo sapiens), sequence (Q09013 whole entry): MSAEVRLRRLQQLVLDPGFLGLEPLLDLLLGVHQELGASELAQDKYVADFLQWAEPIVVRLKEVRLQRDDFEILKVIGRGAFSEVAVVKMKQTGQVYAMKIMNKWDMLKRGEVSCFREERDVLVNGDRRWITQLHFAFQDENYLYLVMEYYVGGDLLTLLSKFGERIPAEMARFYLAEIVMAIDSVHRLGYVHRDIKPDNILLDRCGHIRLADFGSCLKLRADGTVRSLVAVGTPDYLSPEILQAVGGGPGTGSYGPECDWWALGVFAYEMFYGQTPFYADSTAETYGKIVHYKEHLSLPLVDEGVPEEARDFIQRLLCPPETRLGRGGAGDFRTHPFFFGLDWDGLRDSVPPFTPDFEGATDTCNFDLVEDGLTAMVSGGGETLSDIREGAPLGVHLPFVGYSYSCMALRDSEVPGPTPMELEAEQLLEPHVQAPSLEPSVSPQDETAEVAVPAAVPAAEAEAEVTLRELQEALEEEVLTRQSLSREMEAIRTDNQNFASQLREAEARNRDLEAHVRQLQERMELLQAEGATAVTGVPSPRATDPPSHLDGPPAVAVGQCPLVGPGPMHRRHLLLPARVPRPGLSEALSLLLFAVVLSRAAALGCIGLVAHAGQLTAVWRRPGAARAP
Dual specificity testis-specific protein kinase 2 (Homo sapiens), sequence (Q96S53 whole entry, looked up): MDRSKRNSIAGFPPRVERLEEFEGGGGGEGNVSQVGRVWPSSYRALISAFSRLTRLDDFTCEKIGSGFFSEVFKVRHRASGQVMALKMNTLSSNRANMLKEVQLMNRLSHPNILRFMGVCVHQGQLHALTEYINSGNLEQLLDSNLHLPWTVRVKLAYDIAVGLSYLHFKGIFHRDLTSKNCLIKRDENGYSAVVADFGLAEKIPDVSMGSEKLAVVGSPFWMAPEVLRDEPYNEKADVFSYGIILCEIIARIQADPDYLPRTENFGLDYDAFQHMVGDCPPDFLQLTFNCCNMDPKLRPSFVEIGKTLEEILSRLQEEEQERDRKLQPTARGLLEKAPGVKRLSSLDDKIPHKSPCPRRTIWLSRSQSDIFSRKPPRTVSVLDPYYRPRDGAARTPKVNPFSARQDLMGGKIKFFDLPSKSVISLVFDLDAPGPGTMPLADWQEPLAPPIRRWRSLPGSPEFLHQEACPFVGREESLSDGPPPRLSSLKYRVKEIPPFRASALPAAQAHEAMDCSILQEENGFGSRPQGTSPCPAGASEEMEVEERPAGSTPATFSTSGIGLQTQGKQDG

CCC(F)(F)c1cc(N2CCC(S(C)(=O)=O)CC2)nc2sc(C(N)=O)c(N)c12 [BI-605906]
active: residual activity [14] 49.7% | inhibition (Rattus norvegicus) 51.9%
70% (not active): activity at 100 µM ([3]; compound concentration 100 uM)
99% (not active): activity at 10 µM ([3]; compound concentration 10 uM)
inactive: residual activity [1] 84% | residual activity [2] 53% | residual activity [4] 67% | residual activity [5] 70% | residual activity [6] 78% | residual activity [7] 102% | residual activity [8] 83% | residual activity [9] 85% | residual activity [10] 78% | residual activity [11] 62% | residual activity [12] 84% | residual activity [13] 78% | inhibition [15] 44.6% | inhibition [16] 9.22% | inhibition [17] 21.1% | residual activity ([18]; Compound concentration 10.0 uM) 93% | residual activity ([18]; Compound concentration 100.0 uM) 108% | residual activity [19] 91% | residual activity [20] 82% | residual activity [21] 98% | residual activity [22] 90% | residual activity [23] 96% | residual activity [24] 95% | residual activity [25] 90% | residual activity [26] 89% | residual activity [27] 99% | residual activity ([28]; Compound concentration 1.0 uM) 92% | residual activity ([28]; Compound concentration 10.0 uM) 101% | residual activity [29] 91% | residual activity [30] 98% | residual activity [31] 100% | residual activity [32] 91% | residual activity [33] 96% | residual activity [34] 91% | residual activity ([35]; Compound concentration 1.0 uM) 94% | residual activity ([35]; Compound concentration 10.0 uM) 97% | residual activity [36] 93% | residual activity [37] 94%
